Paper PMC6316600, “Analgesic Activity of Acid-Sensing Ion Channel 3 (ASIС3) Inhibitors: Sea Anemones Peptides Ugr9-1 and APETx2 versus Low Molecular Weight Compounds” (Marine Drugs, 2018)
Bridge positions count the residues as written; N and C are the ends. Ends that are not written are not given here.

Key:
ASIC3 = conditions: cited from earlier work
From the text: (§1) An inhibition of ASIC3 was reported to be an attractive approach to producing analgesia. […] Other nonspecific substances can also influence ASIC3 activity.

[1] = system: CFA-induced thermal hyperalgesia; conditions: rats; cited from earlier work
Description: An inhibition of ASIC3 was reported to be an attractive approach to producing analgesia. […] Other nonspecific substances can also influence ASIC3 activity. […] Several ligands with inhibitory properties were found for this receptor, each of which was able to induce analgesia in animal tests. The most well-known inhibitor APETx2 in various studies has been tested on models of acid-induced muscle pain model, CFA-induced inflammatory pain model (at doses of 0.07, 0.22 and 2.2 µM). Ugr9-1 was studied in models of CFA-induced thermal hyperalgesia and acetic acid writhing test (at doses of 0.5, 0.1, and 0.01 mg/kg). […] The nonspecific actions on other cellular targets and the changes of ASIC3 involvement in the inflammatory process induced by the high antagonists’ concentration for 2 h are suspected. We conclude that the inhibition of both components of ASIC3 currents could be beneficial but could be reversed by hormesis in high doses and during a long exposure to ...

[2] = system: proton-gated currents in DRG neurons; set-up: method as in PMID 25395088; conditions: cited from earlier work
animal models of pain = conditions: cited from earlier work
[3] = system: voltage-gated Na^+-channels; set-up: method as in PMID 22648244; conditions: cited from earlier work
ASIC1b = conditions: cited from earlier work
From the text: as §1

ASIC1a = conditions: cited from earlier work
From the text: as §1

hERG channels = conditions: cited from earlier work
Description: Moreover, APETx2 potentiates rat ASIC1b and ASIC2a at concentrations of 3–10 µM (30–100-fold higher than its ASIC3 inhibitory concentration), which may have implications for its use in in vivo experiments ...

human ASIC3 = target: T1, human ASIC3 (Homo sapiens, UniProt Q9UHC3); assay: Inhibition of transient hASIC3 current, two-electrode voltage clamp, Xenopus laevis oocytes; format: cell-based
T1 construct: host or cells: Xenopus laevis oocytes (cRNA injection)
T1 sequence (Q9UHC3 1-531): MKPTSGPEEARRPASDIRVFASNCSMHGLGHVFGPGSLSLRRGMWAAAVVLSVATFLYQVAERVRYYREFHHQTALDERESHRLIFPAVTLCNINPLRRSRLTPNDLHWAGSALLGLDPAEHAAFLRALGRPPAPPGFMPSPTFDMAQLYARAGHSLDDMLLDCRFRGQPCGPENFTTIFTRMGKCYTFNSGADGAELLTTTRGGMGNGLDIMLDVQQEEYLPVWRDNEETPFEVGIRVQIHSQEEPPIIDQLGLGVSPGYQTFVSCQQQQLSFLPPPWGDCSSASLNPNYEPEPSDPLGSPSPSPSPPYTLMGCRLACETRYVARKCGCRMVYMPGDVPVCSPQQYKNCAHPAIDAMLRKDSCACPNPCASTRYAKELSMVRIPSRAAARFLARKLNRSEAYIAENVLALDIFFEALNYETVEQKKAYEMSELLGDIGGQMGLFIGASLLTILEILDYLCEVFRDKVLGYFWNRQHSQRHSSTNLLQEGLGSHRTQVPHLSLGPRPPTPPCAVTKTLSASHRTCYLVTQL
Description: The activity of ligands was checked on human ASIC3 (hASIC3) channels expressed in Xenopus laevis oocytes. […] Two different protocols were used to reveal the effects of ligands on sustained and transient components of acid-induced hASIC3 currents. The influence of the compounds on the transient current amplitude was estimated after preincubation for 15 s before the activation in a low alkali bath solution (pH 7.8), which ensured an absence of steady-state desensitization for the transient current (Figure 1A). The compounds’ inhibition effectiveness was calculated using the value of maximal amplitudes. […] The inhibitory effect was concentration-dependent and fit well using a logistic equation.
Figure 1 Comparison of ligands’ antagonistic effects on hASIC3 channels. Whole-cell currents were induced by pH drops and recorded at the holding potential −50 mV. (A) Effect of ligands on the transient component of current at conditioning pH 7.8. The control trace is shown first; (B) Effect of ligands on the sustained component at conditioning pH 7.3. The black line is the control trace, and the red line is the trace of activation in the presence of a ligand. Dose-response curves for transient (C) and sustained (D) currents’ inhibitions are shown. Data are shown as mean ± SEM (n = 4–6) and fitted with the logistic equation (solid lines).
X. laevis oocytes were removed surgically and defolliculated by collagenase (Sigma-Aldrich, Moscow, Russia). Oocytes were injected with 2.5 to 10 ng of human ASIC3 cRNA (AF057711.1). The cRNA transcripts were synthesised from a NaeI-linearized ASIC3 cDNA template (pcDNA3.1+humanASIC3 subcloned from clone EX-Q0260- B02 (GeneCopoeia, Inc., Rockville, MD USA) using a HiScribe T7 High Yield RNA Synthesis Kit (New England Biolabs, Ipswich, MA, USA) according to the manufacturer’s protocol for capped transcripts. After the injection, oocytes were kept for 3 to 6 days at 19° in a ND-96 medium containing (in mM) 96 NaCl, 2 KCl, 1.8 CaCl2, 1 MgCl2, and 5 HEPES titrated to pH 7.4 with NaOH supplemented with gentamycin (50 µg/mL). Two-electrode voltage clamp recordings were performed using a GeneClamp 500 amplifier (Axon Instruments, Union City, CA, USA), and the data were filtered at 20 Hz and digitized at 100 Hz by an AD converter L780 (LCard, Moscow, Russia) using in-house software. To induce transient and/or sustained currents, two different protocols with different conditioning pH were used. Microelectrodes were filled with a 3 M KCl solution. The working buffer solution was ND-96 titrated by NaOH to pH 7.8 or 7.3. The solution for the pH shift was constructed based on the ND-96 solution, in which 5 mM HEPES was replaced with 10 mM acetic acid (pH 4.0) or 10 mM MES (pH 5.5) in a supplementary 0.1% BSA solution. The duration of the activation pulses was 3.5 s.
The analysis of the electrophysiological data was performed using the OriginPro 8.6 programme.

mice = assay: Open field test; format: in vivo, CD-1 mice; conditions: 1 mg/kg intramuscular, 4 h before; n = 6–7
Description: An open field test was carried out on mice to estimate the possible sedative effects of compounds administration. No statistically significant changes were detected between ASIC3 antagonist-treated groups and the control animals group in 5-min observations of 12 parameters.
Figure 2 Open field experiments on mice. Administration of compounds at a 1 mg/kg dose intramuscularly was done 4 h before of the measurements. (A) Travelling distance and (B) locomotion activity presented as mean ± SEM for 5-min recording period (n = 6–7).
Adult male CD-1 mice (Animal Breeding Facility Branch of Shemyakin-Ovchinnikov Institute of Bioorganic Chemistry, Russian Academy of Sciences, Pushchino, Russia) weighing 20–25 g were used. Animals that originally passed clinical examination that confirmed no deviations in health were divided into groups (at least eight male mice per group) using the principle of randomization. The average body weight of animals in each group was not statistically different between groups. Animals were housed at room temperature (23 ± 2 °C) and subjected to a 12-h light-dark cycle with food and water available ad libitum. All experiments were performed after receiving approval from the Animal Care and Use Committee of the Branch of the Institute of Bioorganic Chemistry, Russian Academy of Sciences (IBCh RAS) (Pushchino, Russia Federation). The samples were administered intramuscularly 2 h before testing (4 h in the open field test). The initial dose of 1 mg/kg was investigated for all samples, which was further reduced 5, 50, and 500 times for peptides.
In the locomotion measurements, exploration and anxiety were evaluated in the motor activity test on a computerized TSE Multi Conditioning System (TSE Systems GmbH, Bad Homburg, Germany). Four hours after the administration of the sample, the measurement was made, which lasted for 3 min. […]
The data significance in animal tests was determined by an analysis of variance followed by a Tukey’s test. […]

CC(C)C1c2cc(C3CC3c3ccc4cc(C(=N)N)ccc4c3)ccc2CCN1C (stereo not drawn) [A-317567]
Inhibition of ASIC3 sustained and transient currents (ASIC3): blocked ASIC3’s sustained and transient currents | Analgesic effect, CFA inflammatory thermal hyperalgesia [1]: produced an analgesic effect

COc1cc2c(cc1OC)[C@@H]1Cc3ccc(OC)c(OC)c3CN1CC2 [Levo-tetrahydropalmatine, reference compound]
Effect on amplitude of proton-gated currents [2]: decreased the amplitude of proton-gated currents | Nociceptive response to intraplantar acetic acid (animal models of pain; rats): inhibited the nociceptive response to intraplantar acetic acid injections

N=C(N)NC(=O)c1nc(Cl)c(N)nc1N [amiloride]
Inhibition of ASICs / ASIC3 (ASIC3): nonspecific inhibitory effect on ASICs

COc1ccc2ccc(=O)oc2c1CC=C(C)C [osthol]
Block of voltage-gated Na+-channels [3]: block voltage-gated Na^+-channels | Inhibition of ASIC3 (ASIC3): inhibit ASIC3

O=C(O)c1ccccc1O [salicylic acid]
Inhibition of ASIC3 / ASICs currents (ASIC3; sensory neurons and heterologous-expressed ASIC3): inhibit ASICs currents directly on sensory neurons and heterologous-expressed ASIC3 channels

CCCCNc1ccc(C(=O)OCCN(C)C)cc1 [tetracaine]
Inhibition of transient ASIC3 currents (ASIC3; dependence on extracellular pH): inhibit the transient ASIC3 currents in a concentration-dependent manner | Inhibition of ASIC1b currents (ASIC1b): inhibited the ASIC1a and ASIC1b currents | Inhibition of ASIC1a currents (ASIC1a): inhibited the ASIC1a and ASIC1b currents

GTACSCGNSKGIYWFYRPSCPTDRGYTGSCRYFLGTCCTPAD (disulfide 4-37, 6-30, 20-38) [APETx2]
Inhibition of hERG channels (hERG channels): reducing the maximal current amplitude and shifting the voltage dependence of activation to more positive potentials | IC50 (human ASIC3): 344 ± 80 nM | Travelled distance, time spent freezing, distance in the central area versus control (mice): each of these differences was nonsignificant

psalmotoxin 1 (EDCIPKWKGCVNRHGDCCEGLECWKRRRSFEVCVPKTPKT; UniProt P60514 1-40, looked up) [reference compound]
Analgesic effect by blockade of ASIC1a in CNS (animal models of pain; CNS): activation of the endogenous enkephalin pathway and potent analgesic effects
